Reference: patent US20030108574A1, “Carbohydrate-based whole cell cancer vaccines” (priority 2001, published 2003)
Values joined by “and” are separate entries in the source; they are usually repeats but may differ in a detail not shown here. Equal entries are not always repeated.

How the values were obtained:
P815 cells = experiment: Flow cytometry of polysialic acid and NPr polysialic acid expression on P815 cells incubated with ManNPr; format: cell-based, mouse; conditions: 1 mg/ml ManNPr
Procedure: (§1) Flow Cytometry. For flow cytometry, cells were incubated with MAbs 13D9 or 735 in 50 μl of RPMI+1% FBS on ice for 30 min. The cells were then washed and incubated with FITC-labelled secondary antibodies. After 30 min the cells were washed and fixed in 1% formaldehyde and assayed on a flow cytometer (Coulter Incorporation, Miami, Fla.).
To identify a cell line allogeneic to RMA-S, but which was also able to express polysialic acid, a number of allogeneic tumor cell lines were screened by flow cytometric analysis using MAb 735 (data not shown). […] FIG. 1B illustrates NPr polysialic acid expression on the surface of tumor cells for P815 cells incubated with 1 mg/ml ManNPr in cell culture. The cells were harvested at intervals and the expression of polysialic acid and its NPr analog were measured as described above. P815 cells were treated with ManNPr for different time periods, and after washing, they were stained with either MAb 735 or MAb 13D9. […] Obviously the transformation of polysialic acid on the surface of P815 cells follows a different pattern from RMA-S RMA and RBL-2H3 (9) cell lines that already have higher initial levels of expression of polysialic acid. Heat-killed P815 cells, pretreated with ManNPr, were then used as the allogeneic vaccine.

RMA-S cells = experiment: Flow cytometry of polysialic acid and NPr polysialic acid expression on RMA-S cells incubated with ManNPr; format: cell-based, mouse
Procedure: as §1
Preparation of vaccines. RMA-S cells derived from leukemic cell line RMA, are defective in transportation-associated proteins (12). However, RMA-S cells like those of the original RMA cells (9), can still incorporate ManNPr into their surface polysialic acid as shown by flow cytometric analysis. FIG. […] Following harvesting of the cells the expression of polysialic acid and its NPr analog were measured by flow cytometry using MAb 735 and MAb 13D9 respectively.
Heat-killed RMA-S cells pretreated with 1 mg/ml ManNPr for 48 h, were then used as the autologous vaccine.

polysialic acid = conditions: RMA-S tumor-bearing mice, CY day 7, vaccine day 8
Procedure: ELISA. Total IgG antibody was measured by ELISA. Each well of ELISA plate was coated with HAS conjugates (0.5 μl/50 μl PBS/well) of NAc or NPr polysialic acids (11 kDa fractions), and blocked with 150 μl of 10%FBS in PBS. The plates were then washed three times with PBS and Tween20 (0.05%). Sera were added into well of plate after serial dilutions. The plates were kept for 1 hour at room temperature. After washing, anti-mouse IgG conjugates with horseradish peroxide (50 μl) were added into each well of plate and incubated for 1 hour at room temperature. Plates were further washed five times with PBS and Tween20 (0.05%) and 100 Ill of substrate 2,2′-azino-bis-(3-ethylbenthiazoline-6-sulfonic acid)(1 mg/ml) in 44 mM Na2HPO4, 20 mM citric acid and 0.3% H2O2. The plates were read at 405 nm with reference wavelength of 490 nm.
(§2) Vaccine preparation and administration. RMA-S cells were incubated with ManNPr (1 mg/ml) for 48 hour, and after washing with PBS, they were suspended in PBS and killed by heating at 70° C. for 10 min. Mice were injected subcutaneously with 2×10^6 RMA-S cells at the area of rear flank to develop a solid tumor. […] Whole cell vaccines (2×10^6 cells) were inoculated at day 8 and tumor growth was monitored routinely.

RMA-S tumor = experiment: Spleen metastasis by limiting dilution of spleen cells
Procedure: as §2
Limiting dilution-Cell suspension of the mouse spleen was prepared in RPMI 1640 medium. One fifth of each spleen suspension was used to initiate a 2-fold serial dilution with complete RPMI 1640 medium and the cells were cultured over 20 days. Cancer cells of metastasis of spleen were examined under the microscope.
One fifth of cell suspension of spleen was used to initiate a serial 2-fold dilution. Cells were cultured over 20 days and tumor cells from the spleen were examined under the microscope. The negative score was the cell culture that had no tumor cells in comparison of the positive score with tumor cells in cell culture.

Structure (SMILES)	binding of MAb 735 (polysialic acid) to the cell surface (P815 cells)	shift of fluorescence on staining with MAb 13D9 (NPr polysialic acid) (P815 cells; different time periods)	conversion of surface polysialic acid to NPr polysialic acid (staining with MAb 13D9) (RMA-S cells; ManNPr at different concentrations)	binding of MAb 735 (polysialic acid) to the cell surface (RMA-S cells; increasing amounts of ManNPr)	sera binding to polysialic acid (polysialic acid)	Percentage of spleen metastasis (RMA-S tumor; Table 3 experiment) [%]	Metastasis of Spleen, Percentage (RMA-S tumor; day 35, summary of two experiments)	metastasis score of spleen of individual mouse (row head: Treatment) (RMA-S tumor; one cell per mouse, spleen cells cultured over 20 days)
CCC(=O)N[C@@H]1C(O)O[C@H](CO)[C@@H](O)[C@@H]1O (some centres unmarked) [ManNPr, N-propionylmannosamine]	slight increase in the binding of MAb 735	large shift of fluorescence	significantly converted to NPr polysialic acid	binding to the cell surface became weaker	–	–	–	–
O=P1(N(CCCl)CCCl)NCCCO1 (centres unmarked) [CY, cyclophosphamide]	–	–	–	–	no binding	75	(78%)	+ (3×) and −
